Series [1] in a line: Water solubility noted at synthesis. Conditions: crystal obtained in Example 1. It counts as physicochemical. How it is done:
3.58 g of 3-methyl-1-phenyl-5-pyrazolone (hereinafter, also referred to as “edaravone”), 2.59 g of malonaldehyde dianilide hydrochloride, and 20 ml of ethanol were added to a reactor and dissolved. To the obtained solution, 2.04 g of triethylamine and 0.4 ml of water were added and stirred for 1 hour at room temperature (about 25° C., hereinafter, the same applies). After the stirring, the resultant was further reacted for 1 hour at 50° C. After discharging the obtained reaction solution to 100 ml of 1N hydrochloric acid, the mixture was sufficiently stirred and the precipitate was filtered. The resulting cake was washed with water. The cake was added to 200 ml of an aqueous sodium hydroxide solution having a 1% by weight concentration and completely dissolved by heating with stirring. Next, the dissolved solution was stirred for 3 hours after cooling to room temperature. Then, the liquid containing the obtained precipitate was filtered, and then the cake was washed with water. […] Note that the melting point of ED2AP was 249° C., which was water-soluble.
3 ml of dimethylformamide was added to a reactor and the exterior of the reactor was cooled with ice water. 1.75 g of phosphorus oxychloride was slowly dropped into the reactor (Reaction Solution A). In another reactor, 1.78 g of edaravone was dissolved in 5 ml of dimethylformamide (Reaction Solution B). Under room temperature, the reaction solution B was slowly added to the reaction solution A, and the resulting mixture was allowed to react for 1 hour with the end of addition (Reaction Solution C) being a reference. In another reactor, 1.81 g of 3-methyl-1-phenyl-5-pyrazolone was added to 8 ml of chloroform and dissolved (Reaction Solution D). Under room temperature, the reaction solution C was slowly added to the reaction solution D, followed by stirring for 20 minutes and further stirring at 70° C. for 1 hour. To the resultant, 0.2 g of water was added and stirred for another 2 hours. The obtained reaction solution was discharged into 100 ml of water and extracted with a mixed solvent of toluene/ethyl acetate=1/1 (volume ratio). After condensation of the obtained extract, column purification was performed to obtain 2.92 g of yellow crystal of the compound of the formula (10) having the following physical properties.
1.00 g of edaravone, 0.72 g of paraformaldehyde, and 20 ml of formic acid were added to a reaction flask and stirred overnight for 20 hours at 70° C. The obtained reaction solution was discharged into 80 ml of water and extracted with a mixed solvent of toluene/ethyl acetate=1/1 (volume ratio). When the extract was condensed to about two-thirds, crystals were precipitated. Further, the resultant was cooled to room temperature, and sufficiently crystallized, and then filtered. The obtained cake was washed with toluene to obtain 0.88 g of pale yellow crystal of the compound of the formula (14) having the following physical properties.
In Example 1(1), synthesis was performed in the same manner as described above except that 3-methyl-1-ethyl-5-pyrazolone was used instead of edaravone to obtain red crystal of BisEp-C3 having the following physical properties. Note that BisEp-C3 was water-soluble.
In Example 1(2), synthesis was performed in the same manner as described above except that 3-methyl-1-ethyl-5-pyrazolone was used instead of edaravone to obtain yellow crystal of BisEp-C1 having the following physical properties. Note that BisEp-C1 was water-soluble.
In Example 1(3), synthesis was performed in the same manner as described above except that 3-methyl-1-ethyl-5-pyrazolone was used instead of edaravone, then the obtained reaction solution was condensed, and the resultant was subjected to column purification to obtain colorless crystal of BisEp-C1 (H2) having the following physical properties. Note that BisEp-C1 (H2) was water-soluble.

The next series deals with rat neuroid cells B50. The experiment in a line: Alleviation of singlet oxygen (Rose Bengal + G-LED) cytotoxicity, Alamar Blue fluorescence. Conditions: 4 mmol/l; 200 nmol/l RB + G-LED 5 minutes; negative control being 100; RB control 33.17. Format: cell-based. How it is done:
Edaravone, ED2AP and BisEp-C3 were examined whether they had the function of alleviating neuronopathy. Specifically, singlet oxygen was generated by combining Rose Bengal (RB), which is a sensitizer, with green light (G-LED), and the function of alleviating the cytotoxicity of the generated singlet oxygen was examined with the cellular activity being an indicator.
First, rat neuroid cells B50 were cultured in 12-well dishes at 2×10^5 cells/well (medium: RPMI-1640 medium containing 5% FCS) overnight. After the culturing, the medium of each well was replaced with HBSS (1000 μl/well; phenol red free Ca+, Mg+) containing 200 nmol/l RB and edaravone, ED2AP, or BisEp-C3 having a predetermined concentration (0, 12.5, 25, 50, or 100 μmol/l). The dish was then irradiated with G-LED for 5 minutes to generate singlet oxygen. Thereafter, the medium of each well was replaced with 1000 μl of HBSS and Alamar Blue was added. The dish was then allowed to react for about 2 hours in an incubator at 37° C. and 5% CO2. After the reaction, fluorescence intensity (excitation wavelength: λ-560 nm, fluorescence wavelength: λ-595 nm) was measured with a plate reader (infinite200, Tecan Trading AG). In this experimental system, the higher the cellular activity, the more Alamar Blue is taken up and the higher the fluorescence intensity. As a control, fluorescence intensity was measured in the same manner except that sodium azide (Azide, NaN3) was added instead of the compounds so as to achieve a concentration of 4 mmol/l. As a negative control (NC), fluorescence intensity was measured in the same manner except that RB was not added. The relative value of the fluorescence intensity in the sample to which each compound was added was calculated with the fluorescence intensity of the negative control being 100.
Background: Alamar Blue is a resazurin reagent that responds to reducing activity.

Series [2] relates to neutrophils isolated from the peripheral blood of healthy individuals. In words: Superoxide production amount of PMA-stimulated neutrophils, CLA chemiluminescence. Conditions: 0-200 μmol/l or 0-5000 μmol/l; PMA 100 ng/ml; control being 100; FIG. 2. It counts as cell-based, human. The method, then:
For examining the reactive oxygen-eliminating effect of the antioxidant of the present invention, the superoxide produced by the neutrophils when the neutrophils isolated from the peripheral blood of healthy individuals were stimulated with PMA (phorbor-12-myristate-13-acetate) was used. The superoxide production amount was measured by chemiluminescence using CLA (2-methyl-6-pjenyl-3, 7-dihydroimidazo[1,2-a]pyrazine-3-one).
First, ED2AP, BisEp-C3, edaravone, BisEp-C1, or BisEp-C1 (H2) was added to a neutrophil of 4×10^5 cells per sample so as to achieve a predetermined concentration (0, 12.5, 25, 50, 100, or 200 μmol/l, or 0, 125, 250, 500, 1250, 2500, or 5000 μmol/l) with 5 μmol of CLA, and then the cell suspension was seeded in flat-bottomed 96-well plates. The volume of the suspension was 200 μl/well, and phenol red free Ca+, Mg+ HBSS was used as the solution. In addition, the neutrophil was stimulated by adding PMA so as to achieve a concentration of 100 ng/ml. After the stimulation, a plate reader (Envision 2104 Multilabel Reader, produced by Perkin Elmer Co., Ltd.) was used to measure the chemiluminescence value over time for 30 minutes with the PMA stimulation time being a reference. The measurement interval was 30 seconds. The sum of the chemiluminescence values obtained every 30 seconds for 30 minutes was taken as the superoxide production amount. In addition, as a control, the superoxide production amount was measured in the same manner except that each compound was not added. The relative value of the superoxide production amount when each compound was added was calculated with the superoxide production amount of the control being 100.

The nature of series [3]: Storage stability in pH7.4-PBS or pure water at 37° C. protected from light, residual rate by HPLC. It counts as physicochemical. Conditions: 200 μmol/l; for Residual rate (%) After 1 week / Residual rate (%) After 2 weeks: 37° C., protected from light; for Residual rate (%) Initial concentration: initial concentration (reference 100%). How it is done:
The storage stability of edaravone, EMPO, ED2AP, and BisEp-C3 of the following formula (A) were examined. Specifically, edaravone, EMPO, ED2AP, and BisEp-C3 were dissolved in pH7.4-PBS or pure water so as to have a final concentration of 200 μmol/l to prepare dissolved solutions of these compounds. When the compounds were difficult to be dissolved, they were dissolved in an ultrasonic cleaner with warm water at 40° C.
Under the measurement conditions for HPLC described below, the initial concentration was quantified, and then each solution was stored in an oven, which was protected from light, at 37° C., and quantified under the same measurement conditions after 1 week and 2 weeks, to determine residual rate (%) with the initial concentration (100%) being a reference.
Measurement conditions for HPLC
PDA detector (Format: SPD-M20A) HPLC Assay Conditions:
Column: Atlantis dC18 5 μm (250×4.6 mm I.D.; produced by Waters)
Column temperature: 45° C.
Detection method: UV (254 nm)
Eluate A: pH3 buffer solution (adjusted to pH3 by adding phosphoric acid to 0.05M KH2PO4 aqueous solution)/methanol=90/10

Experimental findings from patent US20220110916A1, “Antioxidant and Use Thereof” (Bioradical Research Institute Corp., priority 2019, published 2022) are described below.

For the molecule `Cc1nn(-c2ccccc2)c(O)c1Cc1c(C)nn(-c2ccccc2)c1O` [formula (14), 4,4′-methylenebis[3-methyl-1-phenyl-1H-pyrazol-5-ol]], the solubility in water result in series [1] is “poorly soluble in water”.

As to `CC1=NN(c2ccccc2)C(=O)/C1=C\c1c(C)nn(-c2ccccc2)c1O` [formula (10), 2,4-dihydro-4-[(5-hydroxy-3-methyl-1-phenyl-1H-pyrazol-4-yl)methylene]-5-methyl-2-phenyl-3H-pyrazol-3-one], in series [1], the solubility in water result was “poorly soluble in water”.

Turning to `[N-]=[N+]=[N-]` [sodium azide, reference compound], the “relative value of the fluorescence intensity” value in the series with rat neuroid cells B50 is reported as 80.81.

On to `CCN1N=C(C)/C(=C/c2c(C)nn(CC)c2O)C1=O` [BisEp-C1], for which the solubility in water entry in series [1] is “water-soluble”. For the same molecule, the “relative value of the superoxide production amount” value in series [2] is listed as “suppressed the superoxide production amount in a concentration-dependent manner”.

With `CCn1nc(C)c(Cc2c(C)nn(CC)c2O)c1O` [BisEp-C1 (H2), 4,4′-methylenebis[1-ethyl-3-methyl-1H-pyrazol-5-ol]], in series [1], the solubility in water result is “water-soluble”. In addition, the “relative value of the superoxide production amount” value in series [2] is on record as “suppressed the superoxide production amount in a concentration-dependent manner”.

With `CCN1N=C(C)CC1=O` [EMPO, reference compound], in series [3] (Pure water), the “Residual rate (%) After 1 week” value is 6.3%, the “Residual rate (%) After 2 weeks” value is on record as 1.4% and the “Residual rate (%) Initial concentration” value was 100%. In addition, in series [3] (pH 7.4-PBS), the “Residual rate (%) After 1 week” value was found to be 0.0%, the “Residual rate (%) After 2 weeks” value is 0.0% and the “Residual rate (%) Initial concentration” value turned out to be 100%.
